In PMC11079024, “Identification of a family of species-selective complex I inhibitors as potential anthelmintics” (Nature Communications, 2024):
Values joined by “and” are separate entries in the source; they are usually repeats but may differ in a detail not shown here. Equal entries are not always repeated. Where two headings read alike, the source gives them in different places.

Target: C. elegans (N2) complex I (NADH:ubiquinone oxidoreductase) (Caenorhabditis elegans, UniProt P24887+Q93873+Q94360)
Sequence (Q94360 17-199): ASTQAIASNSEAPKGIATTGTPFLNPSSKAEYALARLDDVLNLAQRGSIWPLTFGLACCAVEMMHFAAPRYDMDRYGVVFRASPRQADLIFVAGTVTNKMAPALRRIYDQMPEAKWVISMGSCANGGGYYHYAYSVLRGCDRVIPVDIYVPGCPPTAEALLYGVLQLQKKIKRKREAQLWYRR
Sequence (P24887 whole entry): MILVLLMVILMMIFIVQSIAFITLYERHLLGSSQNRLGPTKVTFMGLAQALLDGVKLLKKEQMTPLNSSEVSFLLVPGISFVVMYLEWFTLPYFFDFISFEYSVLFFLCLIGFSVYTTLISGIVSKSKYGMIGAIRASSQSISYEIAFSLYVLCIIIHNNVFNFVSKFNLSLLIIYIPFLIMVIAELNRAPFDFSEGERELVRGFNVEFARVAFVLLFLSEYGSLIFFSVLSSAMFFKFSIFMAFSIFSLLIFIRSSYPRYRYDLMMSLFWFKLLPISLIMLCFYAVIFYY
Sequence (Q93873 31-482): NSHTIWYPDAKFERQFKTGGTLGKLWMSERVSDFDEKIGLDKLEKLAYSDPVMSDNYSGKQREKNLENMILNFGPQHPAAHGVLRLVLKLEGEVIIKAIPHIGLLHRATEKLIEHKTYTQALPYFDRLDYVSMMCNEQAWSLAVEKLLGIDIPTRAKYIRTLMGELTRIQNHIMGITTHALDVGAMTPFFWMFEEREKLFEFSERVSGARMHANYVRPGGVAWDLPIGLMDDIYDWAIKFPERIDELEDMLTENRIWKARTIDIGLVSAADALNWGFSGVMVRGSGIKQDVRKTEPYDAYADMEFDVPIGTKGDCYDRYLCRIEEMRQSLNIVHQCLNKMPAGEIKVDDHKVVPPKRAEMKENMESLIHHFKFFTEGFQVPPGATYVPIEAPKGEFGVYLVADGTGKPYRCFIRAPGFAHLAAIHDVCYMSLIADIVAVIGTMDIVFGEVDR
Assay: biochemical
Format: biochemical
Procedure, shortened: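 Activity expressed as percent of solvent control. Complex I rate came from DCIP reduction at 600 nm (initial linear slope, 15 min) with NADH and decylubiquinone as substrates, plus antimycin A and KCN, in pH 7.5 KPi/BSA buffer. Isolated, thrice freeze-thawed mitochondria used at 0.2 mg/mL.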

[1] = wild-type C. elegans, mean of Rep1-4, read-out: percent in vitro complex I activity relative to solvent control, Mean
[2] = wild-type C. elegans, individual Rep1-Rep4, read-out: percent in vitro complex I activity relative to solvent control, single replicates
[3] = N2 wild-type mitochondria, Fig. 4d data set, mean of replicates, read-out: percent (%) in vitro complex I activity relative to solvent control
[4] = wild-type C. elegans mitochondria, mean of replicates, read-out: percent (%) in vitro complex I activity relative to solvent control
[5] = C. elegans mitochondria, Mean of replicates, read-out: in vitro complex I activity relative to solvent control
[6] = C. elegans mitochondria, single replicate, read-out: in vitro complex I activity relative to solvent control
[7] = C. elegans mitochondria, Mean, read-out: in vitro complex I activity relative to solvent control

CC(C)Cc1ccc(C(C)c2nc3ccccc3n2C)cc1 (stereo not shown) [NPD8790]
remaining activity at 0.0001 µM [1]: 96.6% | remaining activity at 0.0005 µM [2]: 105% | remaining activity at 0.0005 µM [1]: 96.5% | remaining activity at 0.001 µM [2]: 99% | remaining activity at 0.001 µM [1]: 92.6% | remaining activity at 0.0025 µM [2]: 107% | remaining activity at 0.0025 µM [1]: 98.8% | remaining activity at 0.005 µM [2]: 102% | remaining activity at 0.005 µM [1]: 95.9% | remaining activity at 0.013 µM [1]: 106% | remaining activity at 0.025 µM [2]: 102% | remaining activity at 0.025 µM [1]: 98.2% | remaining activity at 0.063 µM [1]: 95.6% | remaining activity at 0.125 µM [3]: 96.6% | remaining activity at 0.125 µM (N2 wild-type mitochondria, Fig. 4d data set, single replicate, read-out: percent (%) in vitro complex I activity relative to solvent control): 94.3% | remaining activity at 0.125 µM [4]: 102% | remaining activity at 0.125 µM (wild-type C. elegans mitochondria, single replicate, read-out: percent (%) in vitro complex I activity relative to solvent control): 95.7% | remaining activity at 0.125 µM [2]: 95.7% | remaining activity at 0.125 µM [1]: 92% | remaining activity at 0.313 µM [3]: 90.9% | remaining activity at 0.313 µM [4]: 93% | remaining activity at 0.313 µM [2]: 86.3% | remaining activity at 0.313 µM [1]: 81.9% | remaining activity at 0.625 µM [3]: 93.2% | remaining activity at 0.625 µM [4]: 87% | remaining activity at 0.625 µM [1]: 83.7% | remaining activity at 1.5 µM [3]: 78.9% | remaining activity at 1.5 µM [4]: 72.5% | remaining activity at 1.5 µM [1]: 70.3% | remaining activity at 3 µM [3]: 61.6% | remaining activity at 3 µM [4]: 52.5% | remaining activity at 3 µM [1]: 49.5% | remaining activity at 15 µM [3]: 8.9% | remaining activity at 15 µM [4]: 7.83% | remaining activity at 15 µM [1]: 8.01% | remaining activity at 37.5 µM [3]: 5.01% | remaining activity at 37.5 µM [4]: 3.88% | remaining activity at 37.5 µM [1]: 3.5% | remaining activity at 75 µM (75 µM, wild-type C. elegans, mean of Rep1-4, read-out: percent in vitro complex I activity relative to solvent control, Mean): 13.3% | activity at 100 µM (100 µM compound, relative to solvent control, mean (SEM), read-out: % Activity Complex I): 5.34% | Percent in vitro activity, Complex I (single replicate Rep1-Rep4) (100 μM of NPD compound, C. elegans mitochondria, individual biological replicates, 100 µM): 0.000% and 4.423% and 13.672% and 3.252% | activity at 100 µM (100 μM of NPD compound, C. elegans mitochondria, mean of four biological replicates, read-out: Percent in vitro activity, Complex I (Mean)): 5.34% | remaining activity at 0.06 µM (C. elegans mitochondria, 0.06 µM, Mean of replicates, read-out: in vitro complex I activity relative to solvent control): 109% | remaining activity at 0.13 µM [5]: 102% | remaining activity at 0.13 µM [6]: 112% | remaining activity at 0.313 µM [5]: 93% | remaining activity at 0.625 µM [5]: 87% | remaining activity at 1.5 µM [5]: 72.5% | remaining activity at 3 µM [5]: 52.5% | remaining activity at 15 µM [5]: 7.83% | remaining activity at 37.5 µM [5]: 3.88% | remaining activity at 0.0001 µM [7]: 104% | remaining activity at 0.0005 µM [7]: 106% | remaining activity at 0.0005 µM [6]: 105% | remaining activity at 0.001 µM [7]: 104% | remaining activity at 0.0025 µM [7]: 109% | remaining activity at 0.0025 µM [6]: 107% | remaining activity at 0.005 µM [7]: 107% | remaining activity at 0.013 µM [7]: 115% | remaining activity at 0.025 µM [7]: 108% | remaining activity at 0.025 µM [6]: 102% | remaining activity at 0.063 µM [7]: 109% | remaining activity at 0.125 µM [7]: 102% | remaining activity at 0.125 µM [6]: 95.7% | remaining activity at 0.313 µM [7]: 93% | remaining activity at 0.625 µM [7]: 87% | remaining activity at 1.5 µM [7]: 72.5%
